Measured values published in the supplement of paper PMC11061612.

What was measured:
Test in all cases: combination Emax (second highest fraction inhibited in the dose matrix, 72 h); higher = more inhibition; extreme values may be limits of the assay
[1] = system: KY821 (Acute Myeloid Leukemia)
Procedure, shortened: (§1)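 Bliss excess equals the observed combination effect minus the expected value EA + EB − EA·EB, where EA and EB are the effects of each agent alone. Combination Emax is the second-highest inhibition within the matrix. Inhibition was scaled from CellTiter-Glo 2.0 luminescence, with 0 set by vehicle wells and 1 by blank wells, after 72 hours of two-drug dosing of cells plated in 1536-well plates.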

[2] = system: NCI-H3122 (Lung Adenocarcinoma)
Procedure, shortened: as §1

[3] = system: COR-L279 (Small Cell Lung Carcinoma)
Procedure, shortened: as §1

[4] = system: MN-60 (B-Lymphoblastic Leukemia)
Procedure, shortened: as §1

[5] = system: CHSA8926 (Chondrosarcoma)
Procedure, shortened: as §1

M059J (Glioblastoma) = system: M059J (Glioblastoma)
Procedure, shortened: as §1

[6] = system: KYSE-270 (Esophageal Squamous Cell Carcinoma)
Procedure, shortened: as §1

[7] = system: MOG-G-CCM (Low Grade Glioma)
Procedure, shortened: as §1

[8] = system: CW-2 (Colorectal Carcinoma)
Procedure, shortened: as §1

[9] = system: KU812 (Chronic Myelogenous Leukemia)
Procedure, shortened: as §1

SJSA-1 (Osteosarcoma) = system: SJSA-1 (Osteosarcoma)
Procedure, shortened: as §1

[10] = system: VMRC-RCZ (Kidney Carcinoma)
Procedure, shortened: as §1

[11] = system: NCI-H520 (Squamous Cell Lung Carcinoma)
Procedure, shortened: as §1

[12] = system: SK-GT-4 (Esophageal Adenocarcinoma)
Procedure, shortened: as §1

[13] = system: DMS-114 (Small Cell Lung Carcinoma)
Procedure, shortened: as §1

[14] = system: IM-95 (Gastric Carcinoma)
Procedure, shortened: as §1

[15] = system: NCI-H661 (Non-Small Cell Lung Carcinoma)
Procedure, shortened: as §1

[16] = system: ST486 (Burkitt's Lymphoma)
Procedure, shortened: as §1

[17] = system: NCI-H929 (Plasma Cell Myeloma)
Procedure, shortened: as §1

[18] = system: SU-DHL-5 (B-Cell Non-Hodgkin's Lymphoma)
Procedure, shortened: as §1

| Structure (SMILES) | combination Emax [1] | combination Emax [2] | combination Emax [3] | combination Emax [4] | combination Emax [5] | combination Emax (M059J (Glioblastoma)) | combination Emax [6] | combination Emax [7] | combination Emax [8] | combination Emax [9] | combination Emax (SJSA-1 (Osteosarcoma)) | combination Emax [10] | combination Emax [11] | combination Emax [12] | combination Emax [13] | combination Emax [14] | combination Emax [15] | combination Emax [16] | combination Emax [17] | combination Emax [18] |
| --- | --- | --- | --- | --- | --- | --- | --- | --- | --- | --- | --- | --- | --- | --- | --- | --- | --- | --- | --- | --- |
| Cc1cc2ncnn2cc1Nc1ncc2c(n1)n(C1CCOCC1)c(=O)n2C [AZD7648] + C=CCn1c(=O)c2cnc(Nc3ccc(N4CCN(C)CC4)cc3)nc2n1-c1cccc(C(C)(C)O)n1 [AZD1775] (first compound max 10 µM, partner max 1 µM) | 0.994 | 0.744 | 0.484 | 0.124 | 0.592 | 0.522 | 0.594 | 0.48 | 0.391 | 0.799 | 0.486 | 0.393 | 0.81 | 0.474 | 0.385 | 0.501 | 0.649 | 0.98 | 0.827 | 1 |
| CC1(C)CCC(CN2CCN(c3ccc(C(=O)NS(=O)(=O)c4ccc(NCC5CCOCC5)c([N+](=O)[O-])c4)c(Oc4cnc5[nH]ccc5c4)c3)CC2)=C(c2ccc(Cl)cc2)C1 [Venetoclax] + Cn1cnc2c(F)c(Nc3ccc(Br)cc3Cl)c(C(=O)NOCCO)cc21 [Selumetinib] (first compound max 1 µM, 7x7, partner max 3 µM) | 1 | 0.387 | 0.213 | 0.347 | 0.148 | 0.203 | 0.554 | 0.0923 | 0.191 | 0.783 | 0.325 | 0.122 | 0.113 | 0.473 | 0.0989 | 0.179 | 0.0912 | 0.754 | 0.386 | 0.339 |
| CN(CCO)CC[C@H](CSc1ccccc1)Nc1ccc(S(=O)(=O)NC(=O)c2ccc(N3CCC([C@@H](O)c4ccccc4-c4ccc(Cl)cc4)CC3)cc2)cc1S(=O)(=O)C(F)(F)F [AZD4320] + CCN(CCO)CCCOc1ccc2c(Nc3cc(CC(=O)Nc4cccc(F)c4)[nH]n3)ncnc2c1 [AZD2811] (first compound max 1 µM, 7x7, partner max 1 µM) | 1 | 0.269 | 1 | 0.238 | 0.643 | 0.69 | 0.113 | 0.773 | 0.12 | 0.885 | 0.335 | 0.149 | 0.689 | 0.238 | 0.247 | 0.859 | 0.0831 | 0.979 | 0.227 | 0.755 |
| CN(CCO)CC[C@H](CSc1ccccc1)Nc1ccc(S(=O)(=O)NC(=O)c2ccc(N3CCC([C@@H](O)c4ccccc4-c4ccc(Cl)cc4)CC3)cc2)cc1S(=O)(=O)C(F)(F)F [AZD4320] + C[C@@H]1COCCN1C2=NC(=NC(=C2)C3(CC3)[S@](=N)(=O)C)C4=C5C=CNC5=NC=C4 [AZD6738] (first compound max 1 µM, 7x7, partner max 10 µM) | 1 | 0.675 | 1 | 0.51 | 0.761 | 0.774 | 0.78 | 0.783 | 0.49 | 0.942 | 0.557 | 0.566 | 0.696 | 0.675 | 0.592 | 0.778 | 0.674 | 0.969 | 0.739 | 1 |
| COc1nnc2ccc(N3CCC(c4ccc(OCCN5CCN(C)C(=O)[C@H]5C)cc4)CC3)nn12 [AZD5153] + C[C@@H]1COCCN1C2=NC(=NC(=C2)C3(CC3)[S@](=N)(=O)C)C4=C5C=CNC5=NC=C4 [AZD6738] (first compound max 1 µM, 7x7, partner max 10 µM) | 1 | 0.757 | 0.972 | 0.8 | 0.632 | 0.74 | 0.57 | 0.702 | 0.722 | 0.963 | 0.634 | 0.58 | 0.869 | 0.663 | 0.733 | 0.44 | 0.698 | 0.973 | 0.991 | 1 |
| COc1nnc2ccc(N3CCC(c4ccc(OCCN5CCN(C)C(=O)[C@H]5C)cc4)CC3)nn12 [AZD5153] + Cn1cnc2c(F)c(Nc3ccc(Br)cc3Cl)c(C(=O)NOCCO)cc21 [Selumetinib] (first compound max 1 µM, 7x7, partner max 10 µM) | 1 | 0.68 | 0.682 | 0.78 | 0.442 | 0.618 | 0.58 | 0.548 | 0.565 | 0.994 | 0.576 | 0.308 | 0.61 | 0.651 | 0.614 | 0.564 | 0.305 | 0.994 | 1 | 1 |
